Data as given in PMC8040968, “Identification of small molecule allosteric modulators of 5,10-methylenetetrahydrofolate reductase (MTHFR) by targeting its unique regulatory domain” (Biochimie, 2021).
Values joined by “and” are separate entries in the source; they are usually repeats but may differ in a detail not shown here. Identical values can stand only once. Like-named read-outs stand apart in the source and are kept apart here. Blank lines part the entries; values can stand above or below the compound they belong to.

Experiments:
hsMTHFRCD-RD [1] = biological target: T1, hsMTHFRCD-RD (Homo sapiens, UniProt P42898); assay: MIDAS protein-metabolite interactomics (equilibrium dialysis FIA-MS), CD-RD construct; assay type: binding; settings: Fig. 2B
T1 construct: encompassing just the CD and RD (amino acids 38–644; hsMTHFRCD-RD); made in house
T1 sequence (P42898 38-644): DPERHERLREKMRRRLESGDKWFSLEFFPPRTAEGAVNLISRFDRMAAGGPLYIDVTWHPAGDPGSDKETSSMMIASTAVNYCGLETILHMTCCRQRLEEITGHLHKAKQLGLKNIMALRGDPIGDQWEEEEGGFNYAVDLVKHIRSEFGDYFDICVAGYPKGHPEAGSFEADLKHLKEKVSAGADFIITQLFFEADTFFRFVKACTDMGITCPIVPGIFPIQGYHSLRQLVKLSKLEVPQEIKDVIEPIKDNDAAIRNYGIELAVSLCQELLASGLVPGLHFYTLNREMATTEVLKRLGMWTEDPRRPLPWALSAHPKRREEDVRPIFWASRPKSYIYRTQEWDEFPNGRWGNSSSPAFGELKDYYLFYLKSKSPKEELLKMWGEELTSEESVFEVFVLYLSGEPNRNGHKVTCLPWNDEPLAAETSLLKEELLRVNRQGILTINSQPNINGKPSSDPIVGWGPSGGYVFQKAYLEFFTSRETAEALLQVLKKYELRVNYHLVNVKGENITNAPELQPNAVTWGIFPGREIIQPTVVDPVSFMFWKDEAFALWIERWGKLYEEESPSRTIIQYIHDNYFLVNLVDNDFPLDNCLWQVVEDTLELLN
Method: (§1) Protein–metabolite interactomics using an updated MIDAS screening platform was performed as reported previously. Briefly, a flow-injection analysis mass-spectrometry (FIA-MS) method utilising a validated library of 400 metabolite standards was combined into four unique and defined screening pools in 150 mM ammonium acetate pH 7.4. For each metabolite pool, 8 μl of hsMTHFRCD-RD (542 μM) or hsMTHFRRD (240 μM) protein was arrayed in triplicate across a SWISSCI 10 MWC 96-well microdialysis plate (protein chambers). To the trans side of each dialysis well, 300 μl of a metabolite pool (50 μM per metabolite) was arrayed in triplicate for each target protein (metabolite chambers). Dialysis plates were placed in the dark at 4 °C on a rotating shaker (150 rev min−1) and incubated for 40 h. Post-dialysis, protein- and metabolite-chamber dialysates were normalized and diluted 1:10 in 80% methanol, incubated for 30 min on ice, and centrifuged at 3200 RCF for 15 min to remove precipitated protein. Metabolite pool analytes were arrayed across a 384-well microvolume plate and placed at 4 °C in a Shimadzu SIL-20ACXR autosampler for FIA-MS metabolomics analysis. 2 μl of each sample was analysed in technical triplicate by FIA-MS on a SCIEX X500R QTOF MS with interspersed injections of blanks.
FIA-MS spectra from MIDAS protein–metabolite interactomics was qualitatively and quantitatively processed in SCIEX OS 1.6 software to determine relative metabolite abundance by integrating the mean area under the extracted-ion chromatogram curve across technical triplicates. Log2 (fold change) for each metabolite was calculated from the relative metabolite abundance in the protein chamber (numerator) and metabolite chamber (denominator) from dialysis triplicates. For each technical triplicate, up to one outlier was removed using a z-score cutoff of five (<0.1% of observations). The corrected technical replicates were collapsed to one mean fold-change summary per protein–metabolite pair. To remove fold-change variation that was not specific to a given metabolite–protein pair, the first three principal components of the total MIDAS dataset were removed (∼75% of observed variance) creating Log2 (corrected fold change). Protein–metabolite z-scores were determined by comparing the target protein–metabolite Log2 (corrected fold change) to a no-signal model for that metabolite using measures of the central tendency (median) and standard deviation (extrapolated from the 25–75% quantiles) which are not biased by the signals in the tails of a metabolite’s fold-change distribution. Z-scores were controlled for false-discovery rate using Storey’s q value (http://github.com/jdstorey/qvalue). Protein–metabolite interactions with p-values < 0.05 and q-values < 0.1 were considered significant.

hsMTHFRCD-RD [2] = biological target: T1, hsMTHFRCD-RD; assay: Surface plasmon resonance, CD-RD construct; assay type: binding; settings: SPR, read-out: Kd (dissociation constant)
Method: (§2) For determination of the affinity between hsMTHFRCD-RD and (S)-SKI-72, 30 μg of hsMTHFRCD-RD was immobilized onto Sensor Chip CM5 sensor (series S) to a density of 7500 RU via the protein –NH2 groups employing 1-Ethyl-3-(3-dimethylaminoproppyl)carbodiimide crosslinker (EDC) and N-hydroxysuccinimide (NHS) in acetate buffer pH 4.0. For the binding experiment, (S)-SKI-72 was serially diluted (1:1) from 6.25 μM to 0.05 μM in 20 mM HEPES pH 7.5, 150 mM NaCl, 0.5 mM TCEP, 0.05% TWEEN-20, 5% DMSO and subsequently injected at a 30 μL/min flow rate over the sensor. […] For the binding experiment, (S)-SKI-72 was serially diluted from 12.5 μM to 0.012 μM and AdoMet was serially diluted from 25 μM to 0.19 μM and subsequently injected at a 30 μL/min flow rate over the sensor. Data were analysed using the Biacore S200 Evaluation Software.

hsMTHFRFL = biological target: T2, hsMTHFRFL (Homo sapiens, UniProt P42898); assay: MTHFR enzyme activity assay (physiological forward assay), purified enzyme; assay type: biochemical; settings: for Ki: four-parameter curve fit, n = 3
T2 construct: encompassing the full-length (amino acids 1–656; hsMTHFRFL); made in house
T2 sequence (P42898 whole entry, the tested form may be a part): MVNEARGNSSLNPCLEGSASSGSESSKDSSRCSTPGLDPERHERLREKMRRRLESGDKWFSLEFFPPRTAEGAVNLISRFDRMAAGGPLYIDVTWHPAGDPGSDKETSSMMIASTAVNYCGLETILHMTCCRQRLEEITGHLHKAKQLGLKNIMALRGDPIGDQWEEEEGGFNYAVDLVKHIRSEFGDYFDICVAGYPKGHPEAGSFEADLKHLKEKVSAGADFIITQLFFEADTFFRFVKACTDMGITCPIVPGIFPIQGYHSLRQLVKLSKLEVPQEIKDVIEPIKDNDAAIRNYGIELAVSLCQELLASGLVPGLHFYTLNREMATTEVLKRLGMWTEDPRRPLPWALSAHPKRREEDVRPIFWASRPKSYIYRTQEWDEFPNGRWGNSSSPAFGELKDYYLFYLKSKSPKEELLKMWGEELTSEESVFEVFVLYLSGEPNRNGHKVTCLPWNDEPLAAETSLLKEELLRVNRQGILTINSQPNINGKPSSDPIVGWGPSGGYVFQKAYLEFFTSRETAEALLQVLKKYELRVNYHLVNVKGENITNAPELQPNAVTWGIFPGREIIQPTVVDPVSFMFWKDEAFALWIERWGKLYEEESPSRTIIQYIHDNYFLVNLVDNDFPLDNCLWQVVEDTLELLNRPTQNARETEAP
Method: (§3) All enzymatic assays were performed using the physiological forward assay described by Suormala et al.. For (S)-SKI-72 inhibition in […] (ATCC: CRL-3216) cell lysates, the assay was performed with the modifications described by Rummel et al. and Burda et al.. For (S)-SKI-73 inhibition of intact HEK293 cells, 300,000 cells/well of a 6-well plate were allowed to settle overnight. The next day, media containing Dulbecco’s Modified Eagle Medium (Gibco) supplemented with 10% fetal bovine serum (Gibco) and 1% antibiotic/antimycotic (Gibco) was exchanged to fresh media of the same composition plus the indicated concentration of (S)-SKI-73. Following incubation for 12 or 48 h, cells were harvested, lysed and assayed as previously described. Assay of hsMTHFRFL was performed as described. Purified AdoMet was used for inhibition. Sinefungin was purchased from Sigma-Aldrich (Cat# S8559). The Ki for each compound was estimated following a plot of inhibitor versus response and a four-parameter curve fit as performed by GraphPad Prism (v8.00).

[3] = biological target: T3, endogenous MTHFR from HEK293 cell lysate (Homo sapiens, UniProt P42898); assay: MTHFR enzyme activity assay in HEK293 cell lysate; assay type: biochemical; settings: for Ki: n = 3
T3 construct: Remaining activity of endogenous MTHFR from HEK293 cell lysate; host or cells: HEK293
T3 sequence (P42898 whole entry): as the sequence (P42898 whole entry, the tested form may be a part) above
Method: as §3

hsMTHFRRD [4] = biological target: T4, hsMTHFRRD (Homo sapiens, UniProt P42898); assay: Surface plasmon resonance, regulatory domain; assay type: binding; settings: SPR, steady state affinity fit, read-out: Kd (dissociation constant)
T4 construct: encompassing the RD and part of the linker region (amino acids 348–656; hsMTHFRRD); made in house
T4 sequence (P42898 348-656): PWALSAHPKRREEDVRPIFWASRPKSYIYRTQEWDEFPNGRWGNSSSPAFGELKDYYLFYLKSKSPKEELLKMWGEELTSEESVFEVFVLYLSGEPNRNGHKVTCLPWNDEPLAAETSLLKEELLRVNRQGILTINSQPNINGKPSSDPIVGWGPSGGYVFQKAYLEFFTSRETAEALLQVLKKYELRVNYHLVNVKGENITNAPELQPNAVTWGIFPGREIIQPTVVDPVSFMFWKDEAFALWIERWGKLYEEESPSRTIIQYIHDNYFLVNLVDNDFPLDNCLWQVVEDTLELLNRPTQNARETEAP
Method: as §2

[5] = design: method as in PMID 31657716; settings: cited from earlier work
hsMTHFRRD [6] = biological target: T4, hsMTHFRRD; assay: Differential scanning fluorimetry binding assay; settings: up to 250 μM compound, 0.1 mg ml^−1 hsMTHFRRD
Method: Differential scanning fluorimetry was used to assay shifts in melting temperature caused by ligand binding in a 96-well PCR plate using an LC480 light cyler (Roche). Each well (20 μl) consisted of hsMTHFRRD protein (0.1 mg ml^−1), SYPRO-Orange (Invitrogen) diluted 1000X, and buffer (10 mM HEPES pH 7.5, 500 mM NaCl) in the presence of 0–250 μM AdoMet, AdoHcy or analogue compounds. Analogue compounds were part of a AdoMet library consisting of 162 synthetic analogues of adenosine scaffolds which were compiled from the SGC’s compound collection.

hsMTHFRRD [7] = biological target: T4, hsMTHFRRD; assay: MIDAS protein-metabolite interactomics (equilibrium dialysis FIA-MS), regulatory domain alone; assay type: binding; settings: Fig. 2C
Method: as §1, with “Post-dialysis, protein- and metabolite-chamber dialysates were normalized and diluted 1:10 in 80% methanol, incubated for 30 min on ice, and centrifuged at 3200 RCF for 15 min to remove precipitated protein. Metabolite pool analytes were arrayed across a 384-well microvolume plate and placed at 4 °C in a Shimadzu SIL-20ACXR autosampler for FIA-MS metabolomics analysis.” left out
FIA-MS spectra from MIDAS protein–metabolite interactomics was qualitatively and quantitatively processed in SCIEX OS 1.6 software to determine relative metabolite abundance by integrating the mean area under the extracted-ion chromatogram curve across technical triplicates. Log2 (fold change) for each metabolite was calculated from the relative metabolite abundance in the protein chamber (numerator) and metabolite chamber (denominator) from dialysis triplicates. […]

SMILES: Cc1cc2nc3c(=O)[nH]c(=O)nc-3n(C[C@H](O)[C@H](O)[C@H](O)COP(=O)(O)OP(=O)(O)OC[C@H]3O[C@@H](n4cnc5c(N)ncnc54)[C@H](O)[C@@H]3O)c2cc1C [FAD, flavin adenine dinucleotide]
- MIDAS enrichment or depletion of metabolite (hsMTHFRCD-RD [1]): enriched

SMILES: COc1ccc(CCNC(=O)[C@@H](N)CC[C@H](CNCc2ccccc2)C[C@H]2O[C@@H](n3cnc4c(N)ncnc43)[C@H](O)[C@@H]2O)cc1 [(S)-SKI-72]
- Kd (hsMTHFRCD-RD [2]; as printed in Fig. 3A): 0.6 µM
- Kd (hsMTHFRCD-RD [2]; steady state affinity fit): 0.612 µM and 0.596 µM
- residual activity at high concentrations (hsMTHFRFL; purified hsMTHFRFL, even at high concentrations): ~30%
- Ki (hsMTHFRFL; purified hsMTHFRFL): 0.78 ± 0.05 µM
- residual activity at the highest concentrations tested [3]: approximately 50%
- Ki [3]: 3 ± 0.2 µM
- Kd (hsMTHFRRD [4]): 1.47 µM and 1.17 µM and 1.5 µM
- membrane permeability [5]: poor
- Tm shift (hsMTHFRRD [6]): approximately 10 °C

SMILES: Nc1nc2c(c(=O)[nH]1)N(C=O)C(CNc1ccc(C(=O)N[C@@H](CCC(=O)O)C(=O)O)cc1)CN2 (stereo partly shown) [5-FTHF, 5-formyltetrahydrofolate]
- MIDAS enrichment or depletion of metabolite (hsMTHFRCD-RD [1]): enriched

SMILES: C[S+](CC[C@H](N)C(=O)[O-])C[C@H]1O[C@@H](n2cnc3c(N)ncnc32)[C@H](O)[C@@H]1O (stereo partly shown) [AdoMet, S-adenosylmethionine]
- Ki (hsMTHFRFL; purified hsMTHFRFL): 5.8 ± 0.2 µM
- Ki [3]: 8.2 µM and 6.8 µM
- MIDAS enrichment or depletion of metabolite (hsMTHFRRD [7]): enriched
- Kd (hsMTHFRRD [4]): 4.3 µM and 1.06 µM
- Tm shift (hsMTHFRRD [6]): approximately 4 °C
- MIDAS enrichment or depletion of metabolite (hsMTHFRCD-RD [1]): enriched

SMILES: Nc1ncnc2c1ncn2[C@@H]1O[C@H](CSCC[C@H](N)C(=O)O)[C@@H](O)[C@H]1O [AdoHcy, S-adenosylhomocysteine]
- MIDAS enrichment or depletion of metabolite (hsMTHFRRD [7]): enriched
- Tm shift (hsMTHFRRD [6]): ~7 °C
- MIDAS enrichment or depletion of metabolite (hsMTHFRCD-RD [1]): enriched

SMILES: CN1c2c(nc(N)[nH]c2=O)NCC1CNc1ccc(C(=O)N[C@@H](CCC(=O)O)C(=O)O)cc1 (stereo partly shown) [5-MTHF, 5-methyltetrahydrofolate]
- MIDAS enrichment or depletion of metabolite (hsMTHFRCD-RD [1]): depleted

Second part, the compound after the results:

- MIDAS enrichment or depletion of metabolite (hsMTHFRCD-RD [1]): enriched
SMILES: Nc1nc(=O)c2nc(CNc3ccc(C(=O)N[C@@H](CCC(=O)O)C(=O)O)cc3)cnc2[nH]1 [folate]

- MIDAS enrichment or depletion of metabolite (hsMTHFRCD-RD [1]): depleted
SMILES: NC(=O)C1=CN([C@@H]2O[C@H](COP(=O)(O)OP(=O)(O)OC[C@H]3O[C@@H](n4cnc5c(N)ncnc54)[C@H](O)[C@@H]3O)[C@@H](O)[C@H]2O)C=CC1 [NADH]

- effect on the activity of hsMTHFRFL (hsMTHFRFL; concentrations up to ∼100 μM, above that appeared to inhibit): no effect
SMILES: Nc1ncnc2c1ncn2[C@@H]1O[C@H](C[C@@H](N)CC[C@H](N)C(=O)O)[C@@H](O)[C@H]1O [Sinefungin, sinefungin]

- MIDAS enrichment or depletion of metabolite (hsMTHFRCD-RD [1]): depleted
SMILES: NC(=O)C1=CN([C@@H]2O[C@H](COP(=O)(O)OP(=O)(O)OC[C@H]3O[C@@H](n4cnc5c(N)ncnc54)[C@H](OP(=O)(O)O)[C@@H]3O)[C@@H](O)[C@H]2O)C=CC1 [NADPH]
